Results taken from patent US20120208809A1, “9H-PYRROLO[2,3-B: 5,4-C'] DIPYRIDINE AZACARBOLINE DERIVATIVES, PREPARATION THEREOF, AND THERAPEUTIC USE THEREOF” (SANOFI, priority 2009, published 2012).

Legend:
Pim-2 = target: T1, Pim-2 (Homo sapiens, UniProt Q9P1W9); assay: TR-FRET assay of Pim kinase activity (phosphorylation of Bad Ser112), Pim-2; format: biochemical; conditions: ATP 40 μM, read-out: IC50 Pim2
T1 construct: full-length human recombinant His6-labelled Pim-1, Pim-2 or Pim-3 protein; His6; made in house
Protocol: (§1) In order to determine the inhibition of Pim kinase activity, the compounds of the invention are tested in accordance with a routinely-used in-vitro TR-FRET assay (“Time Resolved-Fluorescence Resonance Energy Transfer”). […] For the assay, the following reagents are used:
(§2) Pim kinase—full-length human recombinant His6-labelled Pim-1, Pim-2 or Pim-3 protein (prepared according to J. Mol. Biol. (2005) 348, 183-193); Bad—full-length human recombinant His6-labelled Bad protein (prepared according to J. Mol. Biol. (2005) 348, 183-193); α-His6-APC—mouse monoclonal antibody conjugated to allophycocyanine SureLight™ directed against the His6 label (Perkin-Elmer, No. AD0059H, Waltham, Mass., United States); α-P˜Bad-Eu—mouse monoclonal antibody (Cell Signaling Technology #9296B, Danvers, Mass., United States) directed against phosphoBad (Ser112) (7E11) labelled on request by Perkin-Elmer with the reagent LANCE™ Eu-W1024.
(§3) The assay is based on the LANCE™ technology from Perkin-Elmer: the Eu-labelled antibody binds to phospho-Ser112 and generates a TR-FRET signal by interaction with the […] antibody directed against His6, bound to the His6 label of Bad. The TR-FRET signal is detected using a SpectraMax M5 plate reader (Molecular Devices) with the following settings: λex=340 nm, λem1=615 nm, λem2=665 nm. The ratio of the fluorescence signal at 665 nm to the fluorescence signal at 615 nm is used as the signal reading for the IC50 (calculations based on the 4-parameter logistic model). The assay is performed in 384-well format; the liquid manipulations are performed using a Beckmann 3000 liquid manipulation station. The test compounds are tested at 10 concentration points in duplicate; the highest concentration of compound is typically equal to 30 μM. The ATP concentration is equal to 40 μM.

CDK1 = CDK1 (Homo sapiens, UniProt P06493); assay: Biochemical results, IC50 CDK1
Pim-3 = target: T2, Pim-3 (Homo sapiens, UniProt Q86V86); assay: TR-FRET assay of Pim kinase activity (phosphorylation of Bad Ser112), Pim-3; format: biochemical; conditions: ATP 40 μM, read-out: IC50 Pim3
T2 construct: full-length human recombinant His6-labelled Pim-1, Pim-2 or Pim-3 protein; His6; made in house
Protocol: as §1, §2, §3

Pim-1 = target: T3, Pim-1 (Homo sapiens, UniProt P11309); assay: TR-FRET assay of Pim kinase activity (phosphorylation of Bad Ser112), Pim-1; format: biochemical; conditions: ATP 40 μM, read-out: IC50 Pim1
T3 construct: full-length human recombinant His6-labelled Pim-1, Pim-2 or Pim-3 protein; His6; made in house
Protocol: as §1, §2, §3

PLK1 = PLK1 (Homo sapiens, UniProt P53350); assay: Biochemical results, IC50 PLK1
Sequence of PLK1 (P53350 whole entry, species assumed): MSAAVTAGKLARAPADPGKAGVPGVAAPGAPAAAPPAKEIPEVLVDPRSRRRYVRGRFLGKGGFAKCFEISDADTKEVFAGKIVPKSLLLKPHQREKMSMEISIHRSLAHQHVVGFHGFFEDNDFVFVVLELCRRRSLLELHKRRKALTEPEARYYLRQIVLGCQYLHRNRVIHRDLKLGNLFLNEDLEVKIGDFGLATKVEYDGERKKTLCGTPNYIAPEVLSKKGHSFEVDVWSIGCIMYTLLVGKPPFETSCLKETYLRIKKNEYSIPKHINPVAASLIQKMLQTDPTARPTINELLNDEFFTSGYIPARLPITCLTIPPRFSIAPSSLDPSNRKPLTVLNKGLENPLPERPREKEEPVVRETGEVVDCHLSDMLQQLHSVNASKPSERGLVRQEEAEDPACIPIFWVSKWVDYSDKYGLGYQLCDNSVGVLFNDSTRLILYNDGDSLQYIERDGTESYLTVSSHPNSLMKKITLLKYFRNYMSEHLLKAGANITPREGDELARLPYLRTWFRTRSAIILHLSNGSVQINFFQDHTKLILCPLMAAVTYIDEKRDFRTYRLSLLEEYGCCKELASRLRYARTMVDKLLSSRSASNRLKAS

Sequence of CDK1 (P06493 whole entry, species assumed): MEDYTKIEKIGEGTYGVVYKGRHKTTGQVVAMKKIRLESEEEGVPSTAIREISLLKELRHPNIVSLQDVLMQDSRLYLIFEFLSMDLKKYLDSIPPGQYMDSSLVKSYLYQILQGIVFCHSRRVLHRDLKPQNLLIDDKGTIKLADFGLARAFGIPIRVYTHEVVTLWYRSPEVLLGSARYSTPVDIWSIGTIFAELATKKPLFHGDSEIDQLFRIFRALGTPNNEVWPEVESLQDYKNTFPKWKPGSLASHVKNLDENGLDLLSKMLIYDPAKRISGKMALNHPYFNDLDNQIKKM
Sequence of CDK1 (P14635 whole entry partner, species assumed): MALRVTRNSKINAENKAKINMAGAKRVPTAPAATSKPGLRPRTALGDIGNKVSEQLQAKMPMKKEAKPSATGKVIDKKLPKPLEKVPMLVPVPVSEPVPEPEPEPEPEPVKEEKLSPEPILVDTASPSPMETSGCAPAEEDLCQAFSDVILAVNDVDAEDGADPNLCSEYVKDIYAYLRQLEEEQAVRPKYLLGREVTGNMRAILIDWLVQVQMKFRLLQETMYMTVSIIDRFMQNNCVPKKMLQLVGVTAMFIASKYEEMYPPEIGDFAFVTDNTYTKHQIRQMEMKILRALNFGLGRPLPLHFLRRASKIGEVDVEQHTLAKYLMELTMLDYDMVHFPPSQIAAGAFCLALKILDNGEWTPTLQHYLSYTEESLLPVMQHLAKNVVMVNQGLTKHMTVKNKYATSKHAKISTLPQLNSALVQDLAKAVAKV
T3 sequence (P11309 whole entry): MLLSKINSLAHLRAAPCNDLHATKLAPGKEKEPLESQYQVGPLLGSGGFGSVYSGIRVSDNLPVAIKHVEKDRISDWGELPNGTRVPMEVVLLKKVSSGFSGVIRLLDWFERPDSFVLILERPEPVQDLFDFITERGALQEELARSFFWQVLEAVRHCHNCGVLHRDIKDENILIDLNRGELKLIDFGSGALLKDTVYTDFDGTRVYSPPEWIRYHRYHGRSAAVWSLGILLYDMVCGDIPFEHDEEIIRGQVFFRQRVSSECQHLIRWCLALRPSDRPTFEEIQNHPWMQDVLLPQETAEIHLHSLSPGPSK
T1 sequence (Q9P1W9 whole entry): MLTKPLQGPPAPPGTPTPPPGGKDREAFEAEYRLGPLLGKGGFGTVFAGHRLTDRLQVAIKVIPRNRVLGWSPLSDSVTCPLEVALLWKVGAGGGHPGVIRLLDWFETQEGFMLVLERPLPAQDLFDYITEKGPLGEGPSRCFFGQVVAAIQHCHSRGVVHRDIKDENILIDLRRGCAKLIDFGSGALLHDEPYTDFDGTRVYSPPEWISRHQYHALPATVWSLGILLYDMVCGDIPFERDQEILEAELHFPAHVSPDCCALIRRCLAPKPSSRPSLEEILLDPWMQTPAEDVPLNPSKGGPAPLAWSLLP

Structure (SMILES) | IC50 (Pim-2) | IC50 (CDK1) | IC50 (Pim-3) | IC50 (Pim-1) | IC50 (PLK1)
CCN1CCCC(NC(=O)c2ccc(-c3c(F)cnc4[nH]c5cnc(-c6cccnc6)cc5c34)cc2)C1 (stereo not shown) [Example 54, N-(1-ethylpiperidin-3-yl)-4-[3-fluoro-6-(pyridin-3-yl)-9H-pyrrolo[2,3-b:5,4-c′]dipyridin-4-yl]benzamide] | 100 to 1000 nM | 100 to 1000 nM | < 100 nM | < 100 nM | 100 to 1000 nM
CC1CCCCN1CCNC(=O)c1ccc(-c2c(F)cnc3[nH]c4cnc(-c5cccnc5)cc4c23)cc1 (stereo not shown) [Example 55, 4-[3-fluoro-6-(pyridin-3-yl)-9H-pyrrolo[2,3-b:5,4-c′]dipyridin-4-yl]-N-[2-(2-methylpiperidin-1-yl)ethyl]benzamide] | 100 to 1000 nM | 100 to 1000 nM | < 100 nM | < 100 nM | 100 to 1000 nM
CN(C)C1CCCN(C(=O)c2ccc(-c3c(F)cnc4[nH]c5cnc(-c6cccnc6)cc5c34)cc2)C1 (stereo not shown) [Example 57, [3-(dimethylamino)piperidin-1-yl]{4-[3-fluoro-6-(pyridin-3-yl)-9H-pyrrolo[2,3-b:5,4-c′]dipyridin-4-yl]phenyl}methanone] | 1000 to 5000 nM | 100 to 1000 nM | < 100 nM | < 100 nM | 100 to 1000 nM
CC(C)(CNC(=O)c1ccc(-c2c(F)cnc3[nH]c4cnc(-c5cccnc5)cc4c23)cc1)N1CCCC1 [Example 58, 4-[3-fluoro-6-(pyridin-3-yl)-9H-pyrrolo[2,3-b:5,4-c′]dipyridin-4-yl]-N-[2-methyl-2-(pyrrolidin-1-yl)propyl]benzamide] | 100 to 1000 nM | 1000 to 5000 nM | < 100 nM | < 100 nM | 100 to 1000 nM
O=C(NCCN1CCCCCC1)c1ccc(-c2c(F)cnc3[nH]c4cnc(-c5cccnc5)cc4c23)cc1 [Example 60, N-[2-(azepan-1-yl)ethyl]-4-[3-fluoro-6-(pyridin-3-yl)-9H-pyrrolo[2,3-b:5,4-c′]dipyridin-4-yl]benzamide] | 100 to 1000 nM | 100 to 1000 nM | < 100 nM | < 100 nM | 100 to 1000 nM
CS(=O)(=O)NCCNC(=O)c1ccc(-c2c(F)cnc3[nH]c4cnc(-c5cccnc5)cc4c23)cc1 [Example 62, 4-[3-fluoro-6-(pyridin-3-yl)-9H-pyrrolo[2,3-b:5,4-c′]dipyridin-4-yl]-N-{2-[(methylsulfonyl)amino]ethyl}benzamide] | 1000 to 5000 nM | 100 to 1000 nM | < 100 nM | < 100 nM | 100 to 1000 nM
CN1CCCC1CCNC(=O)c1ccc(-c2c(F)cnc3[nH]c4cnc(-c5cccnc5)cc4c23)cc1 (stereo not shown) [Example 65, 4-[3-fluoro-6-(pyridin-3-yl)-9H-pyrrolo[2,3-b:5,4-c′]dipyridin-4-yl]-N-[2-(1-methylpyrrolidin-2-yl)ethyl]benzamide] | 100 to 1000 nM | 1000 to 5000 nM | < 100 nM | < 100 nM | 100 to 1000 nM
CCN(CCN(C)C)C(=O)c1ccc(-c2c(F)cnc3[nH]c4cnc(-c5cccnc5)cc4c23)cc1 [Example 67, N-[2-(dimethylamino)ethyl]-N-ethyl-4-[3-fluoro-6-(pyridin-3-yl)-9H-pyrrolo[2,3-b:5,4-c′]dipyridin-4-yl]benzamide] | < 100 nM | 1000 to 5000 nM | < 100 nM | < 100 nM | 100 to 1000 nM
CN(C)[C@H]1CCN(C(=O)c2ccc(-c3c(F)cnc4[nH]c5cnc(-c6cccnc6)cc5c34)cc2)C1 [Example 69, [(3S)-3-(dimethylamino)pyrrolidin-1-yl]{4-[3-fluoro-6-(pyridin-3-yl)-9H-pyrrolo[2,3-b:5,4-c′]dipyridin-4-yl]phenyl}methanone] | 100 to 1000 nM | 100 to 1000 nM | < 100 nM | < 100 nM | 100 to 1000 nM
CN1CCC(N(C)C(=O)c2ccc(-c3c(F)cnc4[nH]c5cnc(-c6cccnc6)cc5c34)cc2)C1 (stereo not shown) [Example 70, 4-[3-fluoro-6-(pyridin-3-yl)-9H-pyrrolo[2,3-b:5,4-c′]dipyridin-4-yl]-N-methyl-N-(1-methylpyrrolidin-3-yl)benzamide] | 1000 to 5000 nM | 1000 to 5000 nM | 100 to 1000 nM | < 100 nM | 1000 to 5000 nM
CCN(CC)CCN(C)C(=O)c1ccc(-c2c(F)cnc3[nH]c4cnc(-c5cccnc5)cc4c23)cc1 [Example 71, N-[2-(diethylamino)ethyl]-4-[3-fluoro-6-(pyridin-3-yl)-9H-pyrrolo[2,3-b:5,4-c′]dipyridin-4-yl]-N-methylbenzamide] | 1000 to 5000 nM | 1000 to 5000 nM | < 100 nM | < 100 nM | 1000 to 5000 nM
COCCN1CCN(C(=O)c2ccc(-c3c(F)cnc4[nH]c5cnc(-c6cccnc6)cc5c34)cc2)CC1 [Example 72, {4-[3-fluoro-6-(pyridin-3-yl)-9H-pyrrolo[2,3-b:5,4-c′]dipyridin-4-yl]phenyl}[4-(2-methoxyethyl)piperazin-1-yl]methanone] | > 5000 nM | 1000 to 5000 nM | 100 to 1000 nM | 100 to 1000 nM | 100 to 1000 nM
Cc1n[nH]cc1CNC(=O)c1ccc(-c2c(F)cnc3[nH]c4cnc(-c5cccnc5)cc4c23)cc1 [Example 73, 4-[3-fluoro-6-(pyridin-3-yl)-9H-pyrrolo[2,3-b:5,4-c′]dipyridin-4-yl]-N-[(3-methyl-1H-pyrazol-4-yl)methyl]benzamide] | 100 to 1000 nM | 100 to 1000 nM | < 100 nM | < 100 nM | < 100 nM
CN1CC2CCN(C(=O)c3ccc(-c4c(F)cnc5[nH]c6cnc(-c7cccnc7)cc6c45)cc3)CC2C1 (stereo not shown) [Example 74, {4-[3-fluoro-6-(pyridin-3-yl)-9H-pyrrolo[2,3-b:5,4-c′]dipyridin-4-yl]phenyl}(2-methyloctahydro-5H-pyrrolo[3,4-c]pyridin-5-yl)methanone] | 100 to 1000 nM | 1000 to 5000 nM | < 100 nM | < 100 nM | 100 to 1000 nM
O=C(NCc1ncc[nH]1)c1ccc(-c2c(F)cnc3[nH]c4cnc(-c5cccnc5)cc4c23)cc1 [Example 76, 4-[3-fluoro-6-(pyridin-3-yl)-9H-pyrrolo[2,3-b:5,4-c′]dipyridin-4-yl]-N-(1H-imidazol-2-ylmethyl)benzamide] | 100 to 1000 nM | 100 to 1000 nM | < 100 nM | < 100 nM | < 100 nM
CN1CCC2(CCN(C(=O)c3ccc(-c4c(F)cnc5[nH]c6cnc(-c7cccnc7)cc6c45)cc3)C2)C1 (stereo not shown) [Example 77, {4-[3-fluoro-6-(pyridin-3-yl)-9H-pyrrolo[2,3-b:5,4-c′]dipyridin-4-yl]phenyl}(7-methyl-2,7-diazaspiro[4.4]non-2-yl)methanone] | 1000 to 5000 nM | 1000 to 5000 nM | < 100 nM | < 100 nM | 1000 to 5000 nM
O=C(NCCNc1ccccn1)c1ccc(-c2c(F)cnc3[nH]c4cnc(-c5cccnc5)cc4c23)cc1 [Example 78, 4-[3-fluoro-6-(pyridin-3-yl)-9H-pyrrolo[2,3-b:5,4-c′]dipyridin-4-yl]-N-[2-(pyridin-2-ylamino)ethyl]benzamide] | 100 to 1000 nM | 100 to 1000 nM | < 100 nM | < 100 nM | < 100 nM
CCN(CC1CCN(C)C1)C(=O)c1ccc(-c2c(F)cnc3[nH]c4cnc(-c5cccnc5)cc4c23)cc1 (stereo not shown) [Example 79, N-ethyl-4-[3-fluoro-6-(pyridin-3-yl)-9H-pyrrolo[2,3-b:5,4-c′]dipyridin-4-yl]-N-[(1-methylpyrrolidin-3-yl)methyl]benzamide] | 100 to 1000 nM | 1000 to 5000 nM | < 100 nM | < 100 nM | 100 to 1000 nM
O=C(c1ccc(-c2c(F)cnc3[nH]c4cnc(-c5cccnc5)cc4c23)cc1)N1CCC(N2CCCC2)C1 (stereo not shown) [Example 80, 1.3′-bipyrrolidin-1′-yl{4-[3-fluoro-6-(pyridin-3-yl)-9H-pyrrolo[2,3-b:5,4-c′]dipyridin-4-yl]phenyl}methanone] | 100 to 1000 nM | 100 to 1000 nM | < 100 nM | < 100 nM | 100 to 1000 nM
CN1CCC(N(C)C(=O)c2ccc(-c3c(F)cnc4[nH]c5cnc(-c6cccnc6)cc5c34)cc2)CC1 [Example 81, 4-[3-fluoro-6-(pyridin-3-yl)-9H-pyrrolo[2,3-b:5,4-c′]dipyridin-4-yl]-N-methyl-N-(1-methylpiperidin-4-yl)benzamide] | 1000 to 5000 nM | 1000 to 5000 nM | < 100 nM | < 100 nM | 100 to 1000 nM
